Here are results for five compounds from patent US9079864B2, “Modulators of S1P receptors” (Allergan, Inc., priority 2010, dated 2015).

What is called EC50 is the concentration at which the effect is half-maximal.

In the test the target is T1, human S1P1 receptor (Homo sapiens, UniProt P21453).
T1 construct: expressed in transfected cells; membranes used
The test is described as follows: GTP γ35S binding assay for S1P1 activity. Format: biochemical. On the set-up: % stimulation: reference not given here. Conditions: for % stimulation: S1P1 receptor, agonist-induced; for EC50: membranes of cells stably expressing S1P1 receptor, agonist mode, 0.08 to 5,000 nM. Here is the method:
Novel compounds were synthesized and tested for S1P1 activity using the GTP γ^35S binding assay. These compounds may be assessed for their ability to activate or block activation of the human S1P1 receptor in cells stably expressing the S1P1 receptor. GTP γ^35S binding was measured in the medium containing (mM) HEPES 25, pH 7.4, MgCl2 10, NaCl 100, dithiothreitol 0.5, digitonin 0.003%, 0.2 nM GTP γ^35S, and 5 μg membrane protein in a volume of 150 μl. Test compounds were included in the concentration range from 0.08 to 5,000 nM unless indicated otherwise. Membranes were incubated with 100 μM 5′-adenylylimmidodiphosphate for 30 min, and subsequently with 10 μM GDP for 10 min on ice. Drug solutions and membrane were mixed, and then reactions were initiated by adding GTP γ^35S and continued for 30 min at 25° C. Reaction mixtures were filtered over Whatman GF/B filters under vacuum, and washed three times with 3 mL of ice-cold buffer (HEPES 25, pH 7.4, MgCl2 10 and NaCl 100). Filters were dried and mixed with scintillant, and counted for ^35S activity using a β-counter. Agonist-induced GTP γ^35S binding was obtained by subtracting that in the absence of agonist. In case of antagonist assay, the reaction mixture contained 10 nM S1P in the presence of test antagonist at concentrations ranging from 0.08 to 5000 nM.
In general terms: GTPγS is a poorly hydrolysed GTP analogue; its binding reports G protein activation.

T1 sequence (P21453 whole entry): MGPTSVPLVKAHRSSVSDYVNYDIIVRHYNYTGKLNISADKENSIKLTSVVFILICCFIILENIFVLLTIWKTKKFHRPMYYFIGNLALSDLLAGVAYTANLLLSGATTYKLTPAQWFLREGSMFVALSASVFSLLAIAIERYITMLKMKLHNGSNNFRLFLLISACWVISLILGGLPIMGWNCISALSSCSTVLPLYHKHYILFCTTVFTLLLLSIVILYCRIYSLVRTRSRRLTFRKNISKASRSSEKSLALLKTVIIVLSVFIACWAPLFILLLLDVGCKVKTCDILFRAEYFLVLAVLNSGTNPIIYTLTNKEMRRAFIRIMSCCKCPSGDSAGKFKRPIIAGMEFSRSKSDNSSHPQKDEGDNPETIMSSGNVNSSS

`CC(C)Oc1ccc(C#Cc2ccc(Cn3ccnc3)cc2)cc1C#N` [Compound 1, 5-{[4-(1H-imidazol-1-ylmethyl)phenyl]ethynyl}-2-isopropoxybenzonitrile] yielded a % stimulation of 67% and a 50% effective concentration (EC50) of 6.3 nM.

In turn, `CC(C)Oc1ccc(C#Cc2ccc(CN3CCCC3)cc2)cc1C#N` [Compound 2, 2-isopropoxy-5-{[4-(pyrrolidin-1-ylmethyl)phenyl]ethynyl}benzonitrile] yielded a % stimulation of 110% and an EC50 of 365 nM.

Take `CC(C)Oc1ccc(C#Cc2ccc(Cn3ccnc3)cc2)cc1Cl` [Compound 3, 1-{4-[(3-chloro-4-isopropoxyphenyl)ethynyl]-benzyl}-1H-imidazole]: the % stimulation was determined as 81% and the response was half-maximal at 14.7 nM (EC50).

In the case of `Cc1cc(Cn2ccnc2)ccc1C#Cc1ccc(OC(C)C)c(C#N)c1` [Compound 4, 5-{[4-(1H-imidazol-1-ylmethyl)-2-methylphenyl]ethynyl}-2-isopropoxybenzonitrile], the % stimulation was 70% and the EC50 came to 3.1 nM.

Compound `CC(C)Oc1ccc(C#Cc2ccc(Cn3ccnc3)cc2Cl)cc1C#N` [Compound 5, 5-{[2-chloro-4-(1H-imidazol-1-ylmethyl)phenyl]ethynyl}-2-isopropoxybenzonitrile] came in with a % stimulation of 108% and an EC50 of 7.52 nM.
